Results as given in BindingDB's records for doi:10.7270/Q2T72FVT (University of Pittsburgh, 2007).

target: Serine/threonine-protein kinase PLK1 (Homo sapiens, UniProt P53350); test: potency against Plk1 PBD phosphopeptide binding – biochemical, fluorescence polarization, dose response (AID 877)
Sequence (P53350 whole entry): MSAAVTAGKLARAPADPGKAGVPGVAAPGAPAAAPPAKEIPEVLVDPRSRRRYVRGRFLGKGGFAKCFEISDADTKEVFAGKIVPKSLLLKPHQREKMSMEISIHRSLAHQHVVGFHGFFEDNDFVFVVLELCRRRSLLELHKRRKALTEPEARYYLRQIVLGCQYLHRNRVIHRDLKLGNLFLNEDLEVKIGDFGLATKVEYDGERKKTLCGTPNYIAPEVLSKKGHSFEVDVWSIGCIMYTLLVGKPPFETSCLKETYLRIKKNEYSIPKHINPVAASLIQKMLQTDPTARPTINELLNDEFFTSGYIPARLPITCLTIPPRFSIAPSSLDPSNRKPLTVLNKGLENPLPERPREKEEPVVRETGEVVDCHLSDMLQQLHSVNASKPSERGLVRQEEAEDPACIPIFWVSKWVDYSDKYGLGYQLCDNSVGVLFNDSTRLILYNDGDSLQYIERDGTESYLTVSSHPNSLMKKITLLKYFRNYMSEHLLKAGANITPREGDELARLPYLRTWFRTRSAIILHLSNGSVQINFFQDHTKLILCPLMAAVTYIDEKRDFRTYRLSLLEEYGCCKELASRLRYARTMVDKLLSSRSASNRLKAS

| SMILES | IC50 [µM] |
| --- | --- |
| CC1Cn2c(nnc2-c2cc3ccccc3cc2O)S1 (centres undefined) [(3E)-3-(6-methyl-5,6-dihydro-2H-[1,3]thiazolo[2,3-c][1,2,4]triazol-3-ylidene)naphthalen-2-one] | > 50 |
| CC1(C)CC(=O)C=C(NCc2ccncc2)C1 [5,5-dimethyl-3-(4-pyridylmethylamino)cyclohex-2-en-1-one] | > 50 |
| CC(=O)N1CCc2cc(Br)cc(S(=O)(=O)NCc3ccccn3)c21 [1-acetyl-5-bromo-N-(2-pyridinylmethyl)-2,3-dihydroindole-7-sulfonamide] | > 50 |
| COC(=O)c1ccccc1NC1=CC(=NS(=O)(=O)c2cccs2)c2ccccc2C1=O [methyl 2-[[(4E)-1-oxidanylidene-4-thiophen-2-ylsulfonylimino-naphthalen-2-yl]amino]benzoate] | > 50 |
| O=C(c1ccc(-n2cnnn2)cc1)N1CCCCC1 [1-piperidinyl-[4-(1-tetrazolyl)phenyl]methanone] | > 50 |
| C/C(=C\C(=O)Nc1cc(C)on1)c1ccccc1 [(E)-N-(5-methyl-1,2-oxazol-3-yl)-3-phenyl-but-2-enamide] | > 50 |
| CCC(=O)Nc1ccc(-c2nnc(SCC(=O)Nc3nccs3)n2C)cc1 [MLS000076456] | > 50 |
| Cn1cc(SCC(=O)Nc2ccc3c(c2)OCCO3)c2ccccc21 [MLS000529783] | > 50 |

The remaining lines, values ahead:

| IC50 [µM] | SMILES |
| --- | --- |
| > 50 | Fc1ccc(Cn2nnnc2CN2CCN(C3CCCC3)CC2)cc1 [1-Cyclopentyl-4-[1-(4-fluoro-benzyl)-1H-tetrazol-5-ylmethyl]-piperazine] |
| 5.9 | Nc1ccc2c(c1)C(=O)C(=O)c1ccccc1-2 [2-Amino-phenanthrene-9,10-dione] |
| > 50 | O=C(NC1(O)C(=O)c2ccccc2C1=O)c1ccccc1 [N-(2-hydroxy-1,3-dioxo-2-indenyl)benzamide] |
| > 50 | Cc1ccc(NC2=CC(=NS(=O)(=O)c3cccs3)c3ccccc3C2=O)c(C)c1 |
| > 50 | CCC(=O)N1CCN(c2ccc(NC(=O)c3ccc4c(c3)OCO4)cc2)CC1 [Benzo[1,3]dioxole-5-carboxylic acid [4-(4-propionyl-piperazin-1-yl)-phenyl]-amide] |
| > 50 | CC(C)Nc1nnc(SCC(=O)c2c(N)n(Cc3ccccc3)c(=O)n(C)c2=O)s1 [6-amino-1-benzyl-3-methyl-5-[2-[[5-(propan-2-ylamino)-1,3,4-thiadiazol-2-yl]sulfanyl]acetyl]pyrimidine-2,4-dione] |
